Residues, ends and D or L forms follow the SMILES beside them. *: point of attachment. Bz = O=C(c1ccccc1)*
How the values were obtained:
[1] = molecular target: Genome polyprotein (dengue virus type 2) (UniProt P29990); test: Inhibition of Dengue virus serotype 2 NS2B-NS3 protease expressed in Escherichia coli BL21 lambda (DE3) cells at 50 uM using Abz-Nle-Lys-Arg-Arg-Ser-3-(NO2)Tyr as substrate preincubated for 15 mins followed by substrate addition and measured for 15 mins by FRET assay relative to control
[2] = molecular target: Genome polyprotein (West Nile virus) (UniProt P06935); test: Inhibition of West Nile virus NS2B-NS3 protease expressed in Escherichia coli BL21 lambda (DE3) cells at 50 uM using Abz-Gly-Leu-Lys-Arg-Gly-Gly-3-(NO2)Tyr as substrate preincubated for 15 mins followed by substrate addition measured for 15 mins by fluorimetric analysis relative to control
[3] = molecular target: Genome polyprotein (dengue virus type 2) (UniProt P29990); test: Inhibition of Dengue virus serotype 2 NS2B-NS3 protease transfected in human HeLa cells at 12.5 uM measured after 24 hrs by Renilla-luciferase reporter gene assay relative to control; format: cell-based
Genome polyprotein [4] = molecular target: T1, Genome polyprotein (dengue virus type 2, UniProt P29990); test: Inhibition of Dengue virus serotype 2 NS2B-NS3 protease transfected in human HeLa cells measured after 24 hrs by Renilla-luciferase reporter gene assay; format: cell-based
[5] = Cytotoxicity against human HeLa cells assessed as reduction in cell viability measured after 24 hrs by celltiter-blue assay; format: cell-based
Trypsin = Trypsin (Homo sapiens, UniProt P07477+P07478+P35030); test: Inhibition of trypsin (unknown origin) at 50 uM using Boc-Val-Pro-Arg-AMC as substrate preincubated for 15 mins followed by substrate addition and measured for 15 mins by fluorimetric assay relative to control; format: protein assay; details: 0.25 h, 50 µM
Prothrombin = Prothrombin (Homo sapiens, UniProt P00734); test: Inhibition of thrombin (unknown origin) at 25 uM using Boc-Val-Pro-Arg-AMC as substrate preincubated for 15 mins followed by substrate addition and measured for 15 mins by fluorimetric assay; details: 0.25 h
Genome polyprotein [6] = molecular target: T1, Genome polyprotein; test: Inhibition of Dengue virus serotype 2 NS2B-NS3 protease expressed in Escherichia coli BL21 lambda (DE3) cells using Abz-Nle-Lys-Arg-Arg-Ser-3-(NO2)Tyr as substrate preincubated for 15 mins followed by substrate addition and measured for 15 mins by FRET assay
Genome polyprotein [7] = molecular target: Genome polyprotein (West Nile virus, UniProt P06935); test: Inhibition of West Nile virus NS2B-NS3 protease expressed in Escherichia coli BL21 lambda (DE3) cells using Abz-Gly-Leu-Lys-Arg-Gly-Gly-3-(NO2)Tyr as substrate preincubated for 15 mins followed by substrate addition measured for 15 mins by fluorimetric analysis
Genome polyprotein (West Nile virus, UniProt P06935), sequence (P06935 1371-1501 limits assumed): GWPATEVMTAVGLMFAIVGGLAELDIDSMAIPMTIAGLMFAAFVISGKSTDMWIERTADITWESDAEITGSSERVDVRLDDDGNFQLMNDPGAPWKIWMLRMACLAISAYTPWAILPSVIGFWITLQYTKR
Genome polyprotein (West Nile virus, UniProt P06935), sequence (P06935 1502-2120 limits assumed): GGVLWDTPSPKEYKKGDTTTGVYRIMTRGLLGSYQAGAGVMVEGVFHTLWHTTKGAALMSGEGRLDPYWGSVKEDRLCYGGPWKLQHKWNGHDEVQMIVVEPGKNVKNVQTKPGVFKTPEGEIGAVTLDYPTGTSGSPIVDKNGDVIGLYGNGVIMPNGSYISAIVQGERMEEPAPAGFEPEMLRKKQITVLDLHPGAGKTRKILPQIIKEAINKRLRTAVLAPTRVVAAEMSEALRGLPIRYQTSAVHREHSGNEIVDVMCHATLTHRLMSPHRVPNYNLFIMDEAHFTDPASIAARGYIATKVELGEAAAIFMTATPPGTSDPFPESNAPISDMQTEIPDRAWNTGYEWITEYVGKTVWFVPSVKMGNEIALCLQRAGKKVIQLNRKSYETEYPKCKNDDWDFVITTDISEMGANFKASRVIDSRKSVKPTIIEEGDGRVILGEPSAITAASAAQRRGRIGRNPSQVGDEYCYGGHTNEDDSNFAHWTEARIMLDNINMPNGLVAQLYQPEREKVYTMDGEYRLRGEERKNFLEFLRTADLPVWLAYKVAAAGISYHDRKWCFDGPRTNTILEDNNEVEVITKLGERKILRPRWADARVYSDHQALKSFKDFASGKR

Genome polyprotein (West Nile virus), sequence (P06935 whole entry): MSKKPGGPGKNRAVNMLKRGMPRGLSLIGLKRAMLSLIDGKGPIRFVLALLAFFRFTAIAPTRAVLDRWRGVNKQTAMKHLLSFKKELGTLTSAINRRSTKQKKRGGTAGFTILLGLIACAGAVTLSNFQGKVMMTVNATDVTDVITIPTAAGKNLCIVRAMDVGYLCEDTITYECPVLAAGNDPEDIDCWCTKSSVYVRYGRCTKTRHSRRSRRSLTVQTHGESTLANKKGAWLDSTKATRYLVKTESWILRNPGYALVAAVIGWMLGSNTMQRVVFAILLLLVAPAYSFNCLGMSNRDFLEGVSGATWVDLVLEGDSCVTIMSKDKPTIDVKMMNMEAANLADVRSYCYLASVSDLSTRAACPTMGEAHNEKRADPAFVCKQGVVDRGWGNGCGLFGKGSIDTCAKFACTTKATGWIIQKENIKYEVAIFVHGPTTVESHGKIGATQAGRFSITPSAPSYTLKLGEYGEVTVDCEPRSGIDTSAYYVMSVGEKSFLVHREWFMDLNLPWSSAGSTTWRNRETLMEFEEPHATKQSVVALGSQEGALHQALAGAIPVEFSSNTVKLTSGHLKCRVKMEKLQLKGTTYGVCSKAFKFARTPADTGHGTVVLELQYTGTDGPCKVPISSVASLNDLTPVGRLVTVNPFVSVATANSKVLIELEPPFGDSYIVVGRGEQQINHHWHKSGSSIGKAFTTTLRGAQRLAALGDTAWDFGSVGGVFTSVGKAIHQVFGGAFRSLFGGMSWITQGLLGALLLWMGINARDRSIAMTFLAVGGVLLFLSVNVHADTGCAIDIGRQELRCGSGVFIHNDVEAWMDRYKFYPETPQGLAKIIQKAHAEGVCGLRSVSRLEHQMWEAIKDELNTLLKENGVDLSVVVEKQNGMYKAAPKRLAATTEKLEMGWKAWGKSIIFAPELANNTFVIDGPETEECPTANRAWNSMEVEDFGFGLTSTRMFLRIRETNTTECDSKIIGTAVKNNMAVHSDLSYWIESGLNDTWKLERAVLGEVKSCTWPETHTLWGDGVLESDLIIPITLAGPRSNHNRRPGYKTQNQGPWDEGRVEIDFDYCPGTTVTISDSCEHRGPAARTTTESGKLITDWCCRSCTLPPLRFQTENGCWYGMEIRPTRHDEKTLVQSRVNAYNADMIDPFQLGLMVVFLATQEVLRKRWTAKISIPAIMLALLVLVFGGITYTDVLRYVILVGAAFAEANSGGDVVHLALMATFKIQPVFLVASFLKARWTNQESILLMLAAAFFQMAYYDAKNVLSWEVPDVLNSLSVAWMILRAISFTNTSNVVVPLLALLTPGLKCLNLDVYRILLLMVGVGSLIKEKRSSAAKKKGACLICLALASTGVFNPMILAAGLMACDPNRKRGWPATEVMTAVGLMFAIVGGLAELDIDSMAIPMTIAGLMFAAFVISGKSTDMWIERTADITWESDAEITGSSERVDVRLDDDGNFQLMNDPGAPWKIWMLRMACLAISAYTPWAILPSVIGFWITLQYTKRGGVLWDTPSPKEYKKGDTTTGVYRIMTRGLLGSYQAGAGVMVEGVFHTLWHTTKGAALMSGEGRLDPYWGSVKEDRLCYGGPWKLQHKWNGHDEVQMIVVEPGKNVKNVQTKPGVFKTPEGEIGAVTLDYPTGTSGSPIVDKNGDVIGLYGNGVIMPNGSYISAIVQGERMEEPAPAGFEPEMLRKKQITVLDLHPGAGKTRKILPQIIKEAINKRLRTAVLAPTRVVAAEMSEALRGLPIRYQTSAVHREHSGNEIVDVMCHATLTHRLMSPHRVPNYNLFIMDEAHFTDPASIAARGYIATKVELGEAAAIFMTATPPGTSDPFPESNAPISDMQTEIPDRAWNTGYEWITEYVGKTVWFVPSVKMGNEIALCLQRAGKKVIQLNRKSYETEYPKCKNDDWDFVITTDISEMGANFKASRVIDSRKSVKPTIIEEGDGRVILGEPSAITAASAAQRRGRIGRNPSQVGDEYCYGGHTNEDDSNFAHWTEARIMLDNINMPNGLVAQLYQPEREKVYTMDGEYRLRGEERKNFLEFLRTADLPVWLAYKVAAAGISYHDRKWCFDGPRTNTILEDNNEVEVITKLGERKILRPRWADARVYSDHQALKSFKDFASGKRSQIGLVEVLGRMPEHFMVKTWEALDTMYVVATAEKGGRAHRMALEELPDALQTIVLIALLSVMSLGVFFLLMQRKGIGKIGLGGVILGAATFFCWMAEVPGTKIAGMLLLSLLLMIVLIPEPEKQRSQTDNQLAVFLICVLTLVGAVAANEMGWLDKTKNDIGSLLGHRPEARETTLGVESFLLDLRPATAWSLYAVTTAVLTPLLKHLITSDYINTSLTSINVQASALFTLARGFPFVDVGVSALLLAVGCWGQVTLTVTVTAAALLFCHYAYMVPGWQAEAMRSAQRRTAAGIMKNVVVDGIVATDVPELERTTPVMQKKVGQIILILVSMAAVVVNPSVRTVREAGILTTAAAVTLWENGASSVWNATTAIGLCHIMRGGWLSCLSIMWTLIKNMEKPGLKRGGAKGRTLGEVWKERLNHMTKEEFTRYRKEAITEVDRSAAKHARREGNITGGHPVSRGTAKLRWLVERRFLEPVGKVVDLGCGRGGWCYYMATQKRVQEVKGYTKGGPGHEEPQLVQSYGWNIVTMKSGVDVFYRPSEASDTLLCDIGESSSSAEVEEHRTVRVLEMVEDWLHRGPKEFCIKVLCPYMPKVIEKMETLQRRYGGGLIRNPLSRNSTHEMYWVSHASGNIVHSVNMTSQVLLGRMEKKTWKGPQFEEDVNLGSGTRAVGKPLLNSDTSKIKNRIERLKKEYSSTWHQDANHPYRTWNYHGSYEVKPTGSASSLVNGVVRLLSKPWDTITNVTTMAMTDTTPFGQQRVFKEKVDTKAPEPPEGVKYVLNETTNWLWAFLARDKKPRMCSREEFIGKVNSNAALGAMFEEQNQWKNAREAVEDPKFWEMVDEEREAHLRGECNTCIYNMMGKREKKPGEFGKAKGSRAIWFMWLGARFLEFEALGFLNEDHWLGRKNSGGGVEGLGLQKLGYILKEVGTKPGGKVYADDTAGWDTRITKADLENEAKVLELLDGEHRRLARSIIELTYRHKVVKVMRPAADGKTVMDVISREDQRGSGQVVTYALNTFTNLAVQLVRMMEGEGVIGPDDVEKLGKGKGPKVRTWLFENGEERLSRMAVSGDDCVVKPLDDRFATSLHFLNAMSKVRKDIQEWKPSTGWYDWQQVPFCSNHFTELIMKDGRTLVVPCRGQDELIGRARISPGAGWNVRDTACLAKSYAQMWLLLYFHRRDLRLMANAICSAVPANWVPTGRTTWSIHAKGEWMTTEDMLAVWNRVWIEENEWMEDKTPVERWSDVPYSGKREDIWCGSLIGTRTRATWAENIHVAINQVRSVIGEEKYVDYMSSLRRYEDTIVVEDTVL

Compound | inhibition [1] | inhibition [2] | inhibition [3] | EC50 (Genome polyprotein [4]) | CC50 at 24 h [5] | inhibition (INH) (Trypsin) | inhibition (INH) (Prothrombin) | IC50 (Genome polyprotein [6]) | IC50 (Genome polyprotein [7])
CCCCCC(=O)N[C@H](C(=O)NCCCCCCNC(=N)N)c1ccc(OCc2ccccc2)cc1 | < 10% | 28.3% | 61% | 7.7 µM | > 50 µM | Not Active | Not Active | – | –
CCCCCC(=O)N[C@H](C(=O)NCc1ccc(NC(N)=O)cc1)c1ccc(OCc2ccccc2)cc1 | 23.1% | 34.2% | 24% | – | > 50 µM | Not Active | Not Active | – | –
CCCCCC(=O)N[C@H](C(=O)Nc1ccc(N)cc1)c1ccc(OCc2ccccc2)cc1.O=C(O)C(F)(F)F | 13.2% | 10.7% | 49.5% | – | > 50 µM | Not Active | Not Active | – | –
CCCCCC(=O)N[C@H](C(=O)NCc1ccccc1)c1ccc(OCc2ccccc2)cc1 | < 10% | < 10% | < 10% | – | > 50 µM | Not Active | Not Active | – | –
N=C(N)NCCC[C@H](NC(=O)c1ccc(/C=C2\SC(=O)N(C3CCC3)C2=O)cc1)C(=O)N[C@@H](CCCCN)C(=O)N[C@H](C(N)=O)c1ccccc1 | – | – | – | – | – | Not Active | Not Active | – | –
CCCCCC(=O)N[C@H](C(=O)NCc1ccc(NC(=N)N)cc1)c1ccc(OCc2ccc(C#N)cc2)cc1.O=C(O)C(F)(F)F | 74.3% | 24.8% | 12.7% | – | > 50 µM | Not Active | Not Active | 40 µM | –
CCCCCC(=O)N[C@H](C(=O)NCc1ccc(NC(=N)N)cc1)c1ccc(OCc2cccc(OC)c2)cc1.O=C(O)C(F)(F)F | 32.5% | 15.7% | 26% | – | > 50 µM | Not Active | Not Active | – | –
CCCCCC(=O)N[C@H](C(=O)NCc1ccc(C(=O)NN)cc1)c1ccc(OCc2ccccc2)cc1 | 28.3% | 55% | 30.7% | – | > 50 µM | Not Active | Not Active | – | –
CCCCCC(=O)N[C@H](C(=O)NCc1ccc(NC(=O)CN)cc1)c1ccc(OCc2ccccc2)cc1 | 28.2% | < 10% | 10.1% | – | > 50 µM | Not Active | Not Active | – | –
N=C(N)Nc1ccc(CNC(=O)[C@@H](NC(=O)c2ccccc2)c2ccc(OCc3ccccc3)cc2)cc1.O=C(O)C(F)(F)F | 39% | 18.9% | 10.5% | – | > 50 µM | Not Active | Not Active | – | –
CC(=O)N[C@H](C(=O)NCc1ccc(NC(=N)N)cc1)c1ccc(OCc2ccccc2)cc1.O=C(O)C(F)(F)F | < 10% | < 10% | 28.9% | – | > 50 µM | Not Active | Not Active | – | –
N=C(N)NCCC[C@H](NC(=O)[C@H](Cc1ccc(CN)cc1)NC(=O)c1ccccc1)B(O)O | – | – | – | – | – | Not Active | Not Active | – | –
CCCCCC(=O)N[C@H](C(=O)NCc1ccc(C#N)cc1)c1ccc(OCc2ccccc2)cc1 | < 10% | 25.6% | 28.3% | – | > 50 µM | Not Active | Not Active | – | –
CCCCCC(=O)N[C@H](C(=O)NCCN)c1ccc(OCc2ccccc2)cc1 | < 10% | < 10% | 44% | – | > 50 µM | Not Active | Not Active | – | –
CCCCCC(=O)N[C@H](C(=O)NCc1ccc(NC(=N)N)cc1)c1ccc(OCc2ccc(C(C)(C)C)cc2)cc1.O=C(O)C(F)(F)F | 98.1% | 98.9% | 38.7% | – | > 12.5 µM | Not Active | Not Active | 13 µM | 16 µM
CCCCCC(=O)N[C@H](C(=O)Nc1ccc(NC(=N)N)cc1)c1ccc(OCc2ccccc2)cc1.O=C(O)C(F)(F)F | 62.6% | 53.8% | – | – | ≥ 12.5 µM | Not Active | Not Active | – | –
N=C(N)Nc1ccc(CNC(=O)[C@@H](NC(=O)c2ccc(OCc3ccc(Cl)cc3)cc2)c2ccc(OCc3ccccc3)cc2)cc1.O=C(O)C(F)(F)F | 98.7% | 103% | 44.6% | – | > 12.5 µM | Not Active | Not Active | 2.2 µM | 2.5 µM
N=C(N)Nc1ccc(CNC(=O)[C@@H](NC(=O)c2ccccc2-c2ccccc2)c2ccc(OCc3ccccc3)cc2)cc1.O=C(O)C(F)(F)F | 93.3% | 88.1% | 30.1% | – | > 50 µM | Not Active | Not Active | 24 µM | 35 µM
CCCCCC(=O)N[C@@H](C(=O)NCc1ccc(CN)cc1)c1ccc(OCc2ccc(Cl)c(Cl)c2)cc1.O=C(O)C(F)(F)F | 95.2% | 100% | – | – | < 12.5 µM | Not Active | Not Active | 3.1 µM | 11 µM
N=C(N)NCCC[C@H](NC(=O)c1ccccc1)C(=O)N[C@@H](CCCCN)C(=O)NCC(N)=O (Bz-Arg-Lys-Gly-NH2) | 68.6% | 15.3% | < 10% | – | – | Not Active | Not Active | 23 µM | –
CCCCCC(=O)N[C@H](C(=O)NCc1ccc(NC(=N)N)cc1)c1ccccc1.O=C(O)C(F)(F)F | < 10% | < 10% | 18.8% | – | > 50 µM | Not Active | Not Active | – | –
CCCCCC(=O)N[C@H](C(=O)Nc1ccc(CN)cc1)c1ccc(OCc2ccccc2)cc1.O=C(O)C(F)(F)F | 26.5% | 37.6% | – | – | < 12.5 µM | Not Active | Not Active | – | –
CCCCCC(=O)N[C@H](C(=O)NCc1ccc(N)cc1)c1ccc(OCc2ccccc2)cc1.O=C(O)C(F)(F)F | 13% | 13.5% | 43% | – | > 50 µM | Not Active | Not Active | – | –
CCCCCC(=O)N[C@@H](C(=O)NCc1ccc(NC(=N)N)cc1)c1ccc(OCc2ccc(C(F)(F)F)cc2)cc1.O=C(O)C(F)(F)F | 96.7% | 102% | 44.6% | – | > 50 µM | Not Active | Not Active | 6.6 µM | 14 µM
CCCCCC(=O)N[C@H](C(=O)NCc1cccc(CNC(=N)N)c1)c1ccc(OCc2ccccc2)cc1 | 43.8% | 32.7% | 47.4% | – | > 50 µM | Not Active | Not Active | – | –
N=C(N)Nc1ccc(CNC(=O)[C@@H](NC(=O)CC2CCCCC2)c2ccc(OCc3ccccc3)cc2)cc1.O=C(O)C(F)(F)F | 100% | 99.5% | 41.7% | – | > 50 µM | Not Active | Not Active | 9 µM | 28 µM
CCCCCC(=O)N[C@H](C(=O)N[C@@H](CCCCN)C(N)=O)c1ccc(OCc2ccccc2)cc1 | < 10% | < 10% | 11.1% | – | > 50 µM | Not Active | Not Active | – | –
CCCCCC(=O)N[C@H](C(=O)NCc1ccncc1)c1ccc(OCc2ccccc2)cc1 | < 10% | < 10% | 40.6% | – | > 50 µM | Not Active | Not Active | – | –
CCCCCC(=O)N[C@H](C(=O)NCCCCN)c1ccc(OCc2ccccc2)cc1 | 21.3% | < 10% | 45.8% | – | > 50 µM | Not Active | Not Active | – | –

From ChEMBL document CHEMBL4619777, “A New Class of Dengue and West Nile Virus Protease Inhibitors with Submicromolar Activity in Reporter Gene DENV-2 Protease and Viral Replication Assays” (J Med Chem, 2020)
